# Test results taken from patent US12433861B2, “Compositions and methods for treating reperfusion injury or hemorrhage after recanalization therapy” (GNT Pharma Co., Ltd., priority 2020, dated 2025).
# How the values were obtained:
# healthy volunteers = details: human, in vivo
# From the text: NMDA receptor antagonists were reported to produce serious side effects in healthy humans.
# ischemic stroke patients = details: human, in vivo, 5 days
# Experimental: NMDA receptor antagonists can cause adverse events in ischemic stroke patients.
# The ENIS trial was to examine efficacy as well as safety of the intravenous infusions of nelonemdazK for acute ischemic stroke patients (35-80 years old) receiving at least one kind of thrombolytic drugs including rtPA or urokinase within 8 hours of onset. A total of 238 patients were enrolled for the ENIS trial and allocated randomly in a double-blinded manner to one of 4 groups for the intravenous infusions of test drugs as follows: (Group A) placebo [0.9% normal saline], (Group B) 2,750 mg nelonemdazK for 5 days [500 mg for 1st infusion followed by 2nd-10th infusions approximately at 12 h intervals (250 mg for each infusion)], (Group C) 5,250 mg nelonemdazK for 5 days [750 mg for 1st infusion followed by 2nd-10th infusions approximately at 12 h intervals (500 mg for each)], and (Group D) 6,000 mg nelonemdazK for 5 days [1500 mg for 1st infusion followed by 2nd-10th infusions approximately at 12 h intervals (500 mg for each)]. Acute ischemic stroke patients due to occlusion in internal carotid artery system within 8 hours of onset were enrolled. Patients with The National Institutes of Health Stroke Scale (NIHSS; range 0-42, with higher scores indicating greater stroke severity) scores of 4 to 22 and limb weakness including motor arm or motor leg score≥2 of NIHSS were included. All the patients received at least one kind of thrombolytic therapy before treatment of any study drug.
# [1] = tested on: adult rats treated with rt-PA after 3-h tMCAO; assay: rt-PA-induced hemorrhagic transformation following 3-h occlusion of middle cerebral artery (tMCAO); assay type: in vivo, rat; details: for hemorrhage / hemorrhagic transformation in the brain: 10 mg/kg rt-PA IV plus 30 mg/kg IV after reperfusion, 3-h tMCAO, 24 h, potassium salt
# Experimental: Male Sprague-Dawley rats (300-350 g; 15-16 animals/group) were anesthetized with chloral hydrate (400 mg/kg, IP) and the anesthesia was sustained for about 1.5 h during the procedure. The rectal temperature was recorded and maintained at 37.0-37.5° C. using a rectal probe and homoeothermic blanket controlled by a temperature control unit (Letica Scientific Instruments). Occlusion of the MCA was done according to the previous report (Gwag et al., 2007). Briefly, the right common carotid artery, external carotid artery (ECA), and internal carotid artery (ICA) were exposed. A length of 4-0 monofilament nylon suture (17 mm, pre-coated with silicone) with its tip rounded by heating near a flame was advanced from the lumen of the ICA until it blocked the origin of the middle cerebral artery (MCA). The suture remained for 3 h and was withdrawn for reperfusion. After 24 h, the brain was removed immediately, placed in the fixative for 15 min, and used for further analysis.
# Animals received transient focal cerebral ischemia for 3 h as described above with intravenous administration of 10 mg/kg rt-PA or 10 mg/kg rt-PA plus 30 mg/kg nelonemdazK after reperfusion. rt-PA (10 mg/kg) dissolved in water for injection ([…]) was injected through femoral vein over 20 min from 5 min after reperfusion. NelonemdazK (30 mg/kg) dissolved in saline (6 mg/mL; 5 mL/kg) was injected through femoral vein over 5 min immediately after the end of rt-PA infusion.
# normal adult rats = assay: rt-PA-induced hemorrhagic transformation model (intracortical rt-PA) in normal adult rats: Evans blue extravasation and infarct volume; assay type: in vivo, rat; details: intracortical 0.66 mg/kg rt-PA
# Experimental: Male Sprague-Dawley rats (340-380 g) were anesthetized with chloral hydrate (400 mg/kg, IP). The animals received intracortical injection of rt-PA (0.66 mg/kg; total […]) coordinated with 2.6 mm posterior, 5.4 mm lateral, and 3.8 mm from bregma at a flow rate of 0.5 μL/min using a infusion pump and Hamilton syringe. After the end of infusion, the syringe was removed from the cortex and nelonemdazK (30 mg/kg) was administrated through femoral vein for 5 min (3 mg/mL; 10 mL/kg). Six hours later, the rats were anesthetized and intravenously administrated with 4% Evans blue solution. Twenty minutes later, the rats were perfused transcardially first with saline and next with 4% paraformaldehyde. The brain was removed immediately and placed in the fixative for 15 min and scanned for evaluation of extravasation area of Evans blue to indirectly measure rt-PA-induced hemorrhagic transformation which occurs as a result of the breakdown of the blood-brain barrier (Jiang et al., 2018). To evaluate brain damage volume, the brain tissues were stored in 4% paraformaldehyde for 3 days and then processed overnight for paraffin embedding and cresyl violet staining. The extravasation area was measured by TINA imaging system (KAIST, Korea).
# Animals received the intracortical injection of 0.66 mg/kg rt-PA that was followed by subsequent IV administration of vehicle or 30 mg/kg nelonemdazK 5 min later. Hemorrhagic transformation was investigated by analyzing extravasation of Evans blue dye at 6 h after rt-PA. (Upper panel) Compared to the sham control group, administration of rt-PA produced hemorrhagic transformation evident by extravasation of Evans blue, which was prevented by subsequent treatment with nelonemdazK.
# Animals received sham operation or the intracortical injection of 0.66 mg/kg rt-PA, alone or with the subsequent intravenous administration of vehicle or 30 mg/kg nelonemdazK. Animals were sacrificed 6 h later and infarct volume was analyzed after staining brain sections with cresyl violet. (Upper panel) Photographs of brain sections stained with cresyl violet. Note brain lesion following the intracortical injections of rt-PA that was prevented by the administration of nelonemdazK. (Lower panel) Quantitation of infarct volume (Mean±S.E.M., n=3 for sham and 6 for rt-PA-treated groups) by summation of lesion areas in brain sections.
smiles,measurement,setting,value
"O=C([O-])c1cc(NCc2c(F)c(F)c(C(F)(F)F)c(F)c2F)ccc1O.[K+] [nelonemdazK, 2-Hydroxy-5-(2,3,5,6-tetrafluoro-4-trifluoromethylbenzylamino)benzoic acid potassium salt]",Number of subjects showing abnormal behavior: Agitation,healthy volunteers,0
same,Number of subjects showing abnormal behavior: Catatonia,healthy volunteers,0
same,Number of subjects showing abnormal behavior: Confusion,healthy volunteers,0
same,Number of subjects showing abnormal behavior: Hallucination,healthy volunteers,0
same,Number of subjects showing abnormal behavior: Paranoia,healthy volunteers,0
same,% of subjects showing abnormal behavior: Agitation,ischemic stroke patients,2%
same,% of subjects showing abnormal behavior: Confusion,ischemic stroke patients,0 (0%)
same,% of subjects showing abnormal behavior: Delirium,ischemic stroke patients,0 (0%)
same,% of subjects showing abnormal behavior: Hallucination,ischemic stroke patients,0 (0%)
same,% of subjects showing abnormal behavior: Paranoia,ischemic stroke patients,0 (0%)
same,% of subjects showing abnormal behavior: Stupor,ischemic stroke patients,1 (1%)
same,Number of subjects showing abnormal behavior: Agitation,ischemic stroke patients,4
same,Number of subjects showing abnormal behavior: Confusion,ischemic stroke patients,0 (0%)
same,Number of subjects showing abnormal behavior: Delirium,ischemic stroke patients,0 (0%)
same,Number of subjects showing abnormal behavior: Hallucination,ischemic stroke patients,0 (0%)
same,Number of subjects showing abnormal behavior: Paranoia,ischemic stroke patients,0 (0%)
same,Number of subjects showing abnormal behavior: Stupor,ischemic stroke patients,1 (1%)
same,rate of hemorrhagic transformation,"[1]; 10 mg/kg rt-PA IV plus 30 mg/kg IV after 3-h tMCAO, p<0.05 Fisher's exact test",significantly reduced
same,hemorrhage / hemorrhagic transformation in the brain,[1]; listed as NelonemdazK,prevented hemorrhage
same,hemorrhage / hemorrhagic transformation in the brain,[1],prevents hemorrhagic transformation
same,hemorrhagic transformation evident by extravasation of Evans blue,"normal adult rats; 30 mg/kg IV 5 min later, 6 h after rt-PA",prevented
same,brain lesion (cresyl violet),"normal adult rats; 30 mg/kg IV, 6 h",prevented
same,volume of Evans blue extravasation,"normal adult rats; 30 mg/kg IV, 6 h, vs vehicle, p<0.05",significantly reduced
same,infarct volume,"normal adult rats; 30 mg/kg IV, 6 h after rt-PA, vs vehicle",significantly reduced
